Target: ROCK2 (human) (UniProt O75116)
Assay: Inhibition of ROCK2 Kinase Activity

Chain of ROCK2 (human) (O75116 whole entry, looked up): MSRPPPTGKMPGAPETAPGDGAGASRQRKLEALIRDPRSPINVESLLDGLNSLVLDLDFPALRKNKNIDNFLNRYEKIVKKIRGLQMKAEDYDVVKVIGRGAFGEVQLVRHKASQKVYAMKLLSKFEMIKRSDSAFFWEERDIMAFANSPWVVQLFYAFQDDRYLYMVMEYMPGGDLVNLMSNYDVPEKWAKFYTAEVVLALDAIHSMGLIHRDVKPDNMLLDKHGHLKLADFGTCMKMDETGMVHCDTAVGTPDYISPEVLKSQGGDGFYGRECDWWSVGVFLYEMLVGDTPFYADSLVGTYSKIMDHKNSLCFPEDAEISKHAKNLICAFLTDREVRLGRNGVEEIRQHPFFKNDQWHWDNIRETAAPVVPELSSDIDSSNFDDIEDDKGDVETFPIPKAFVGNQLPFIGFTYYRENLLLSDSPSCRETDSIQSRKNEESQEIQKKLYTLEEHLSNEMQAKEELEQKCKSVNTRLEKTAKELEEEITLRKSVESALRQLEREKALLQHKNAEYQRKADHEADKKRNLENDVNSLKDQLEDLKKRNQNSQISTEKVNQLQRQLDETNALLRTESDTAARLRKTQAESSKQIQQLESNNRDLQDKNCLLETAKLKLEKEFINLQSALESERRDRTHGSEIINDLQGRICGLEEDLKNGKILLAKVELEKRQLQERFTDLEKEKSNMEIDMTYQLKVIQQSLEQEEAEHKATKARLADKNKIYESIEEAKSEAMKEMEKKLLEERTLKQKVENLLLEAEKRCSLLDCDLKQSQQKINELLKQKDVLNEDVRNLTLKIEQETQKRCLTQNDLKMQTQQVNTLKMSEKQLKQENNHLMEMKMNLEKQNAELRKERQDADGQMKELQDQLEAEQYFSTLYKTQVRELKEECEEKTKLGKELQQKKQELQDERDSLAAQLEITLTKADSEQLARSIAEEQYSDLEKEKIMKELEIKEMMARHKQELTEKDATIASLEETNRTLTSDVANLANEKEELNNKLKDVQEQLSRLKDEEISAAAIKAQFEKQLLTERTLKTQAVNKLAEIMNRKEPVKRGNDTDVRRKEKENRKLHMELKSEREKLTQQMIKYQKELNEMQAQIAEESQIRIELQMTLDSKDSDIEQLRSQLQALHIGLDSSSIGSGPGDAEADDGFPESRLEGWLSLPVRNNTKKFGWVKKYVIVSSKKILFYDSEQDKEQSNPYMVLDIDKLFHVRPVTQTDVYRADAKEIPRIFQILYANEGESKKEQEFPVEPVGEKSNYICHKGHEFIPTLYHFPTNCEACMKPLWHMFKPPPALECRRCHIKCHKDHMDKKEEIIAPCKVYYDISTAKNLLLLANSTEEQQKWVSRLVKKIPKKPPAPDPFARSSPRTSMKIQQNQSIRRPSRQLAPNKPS

SMILES | IC50 [nM]
Cc1ncccc1C(=O)NCC(N)c1ccc(C(=O)Nc2ccncc2)cc1 (stereo not given) | 500 to 5000
NC(c1ccc(C(=O)Nc2ccncc2)cc1)C1CCCN1C(=O)C1(c2ccc(F)c(F)c2)CCCC1 (stereo not given) | 500 to 5000
N#CCCN(C(=O)CC(N)c1ccc(C(=O)Nc2ccncc2)cc1)C1CC1 (stereo not given) | 500 to 5000
CCNS(=O)(=O)c1cccc(C(=O)NCC(N)c2ccc(C(=O)Nc3ccncc3)cc2)c1 (stereo not given) | 500 to 5000
NC(c1ccc(C(=O)Nc2ccncc2)cc1)C1CCCN1C(=O)Cc1cc(F)ccc1F (stereo not given) | 500 to 5000
NC(CNC(=O)C1CCCC1)c1ccc(C(=O)Nc2ccncc2)cc1 (stereo not given) | 500 to 5000
NC(c1ccc(C(=O)Nc2ccncc2)cc1)C1CCCN1C(=O)Cc1ccc(F)cc1 (stereo not given) | 500 to 5000
NC(c1ccc(C(=O)Nc2ccncc2)cc1)C1CCCN1C(=O)C1(c2ccc(Cl)cc2Cl)CC1 (stereo not given) | 500 to 5000
NC(c1ccc(C(=O)Nc2ccncc2)cc1)C1CCCN1C(=O)Cc1c(F)cccc1F (stereo not given) | 500 to 5000
NC(c1ccc(C(=O)Nc2ccncc2)cc1)C1CCCN1C(=O)Cc1ccc(C(F)(F)F)cc1 (stereo not given) | 500 to 5000
NC(c1ccc(C(=O)Nc2ccncc2)cc1)C1CCCN1C(=O)C1(c2ccc(F)c(F)c2)CCC1 (stereo not given) | 500 to 5000
Cc1ccccc1NC(=S)NCC(N)c1ccc(C(=O)Nc2ccncc2)cc1 (stereo not given) | 500 to 5000
CC(C)(C(=O)NC[C@H](N)c1ccc(C(=O)Nc2ccncc2)cc1)c1ccc(Cl)cc1 | 500 to 5000
NC(c1ccc(C(=O)Nc2ccncc2)cc1)C1CCCN1C(=O)C1(c2ccc(Cl)cc2)CC1 (stereo not given) | 500 to 5000
COc1ccc(C2(C(=O)N(C)CC(N)c3ccc(C(=O)Nc4ccncc4)cc3)CC2)cc1 (stereo not given) | 500 to 5000
NC(c1ccc(C(=O)Nc2ccncc2)cc1)C1CCCN1C(=O)Cc1cccc(Cl)c1F (stereo not given) | 500 to 5000
NC(CNC(=O)NC1CCCC1)c1ccc(C(=O)Nc2ccncc2)cc1 (stereo not given) | 500 to 5000
Cc1ccccc1CC(=O)N(C)CC(N)c1ccc(C(=O)Nc2ccncc2)cc1 (stereo not given) | 500 to 5000
COc1cc(Br)ccc1CCNC(=O)CC(N)c1ccc(C(=O)Nc2ccncc2)cc1 (stereo not given) | 50 to 500
NC(CC(=O)NCc1cccc(OC(F)(F)F)c1)c1ccc(C(=O)Nc2ccncc2)cc1 (stereo not given) | 50 to 500
COc1cccc(CC(=O)NCC(N)c2ccc(C(=O)Nc3ccncc3)cc2)c1 (stereo not given) | 50 to 500

Now from value to molecule:

IC50 [nM] | SMILES
50 to 500 | NC(CNC(=O)C1CCCCc2ccc(F)cc21)c1ccc(C(=O)Nc2ccncc2)cc1 (stereo not given)
50 to 500 | Cc1ccc(CCNC(=O)CC(N)c2ccc(C(=O)Nc3ccncc3)cc2)cc1 (stereo not given)
50 to 500 | N[C@@H](CC(=O)N[C@@H]1CCCc2ccccc21)c1ccc(C(=O)Nc2ccncc2)cc1
50 to 500 | CC(CNC(=O)CC(N)c1ccc(C(=O)Nc2ccncc2)cc1)c1ccc(Cl)cc1 (stereo not given)
50 to 500 | CC(C)(C(=O)NCC(N)c1ccc(C(=O)Nc2ccncc2)cc1)c1ccc(Cl)cc1F (stereo not given)
50 to 500 | NC(CNC(=O)Nc1ccccc1F)c1ccc(C(=O)Nc2ccncc2)cc1 (stereo not given)
50 to 500 | COc1ccc(C(NC(=O)CC(N)c2ccc(C(=O)Nc3ccncc3)cc2)c2ccc(OC)cc2)cc1 (stereo not given)
50 to 500 | CC(CNC(=O)CC(N)c1ccc(C(=O)Nc2ccncc2)cc1)c1ccccc1 (stereo not given)
50 to 500 | NC(CNC(=O)c1ccc2ccccc2c1)c1ccc(C(=O)Nc2ccncc2)cc1 (stereo not given)
50 to 500 | CC(C)(Cc1ccc(F)cc1)NC(=O)CC(N)c1ccc(C(=O)Nc2ccncc2)cc1 (stereo not given)
50 to 500 | CCC(Oc1ccccc1)C(=O)NCC(N)c1ccc(C(=O)Nc2ccncc2)cc1 (stereo not given)
50 to 500 | NC(CC(=O)NCc1cccc(Br)c1)c1ccc(C(=O)Nc2ccncc2)cc1 (stereo not given)
50 to 500 | NC(CNC(=O)Cc1ccc(F)cc1)c1ccc(C(=O)Nc2ccncc2)cc1 (stereo not given)
50 to 500 | Cc1cccc(CN2CCC(NC(=O)CC(N)c3ccc(C(=O)Nc4ccncc4)cc3)CC2)c1 (stereo not given)
50 to 500 | Cc1ccc(CNC(=O)CC(N)c2ccc(C(=O)Nc3ccncc3)cc2)cc1 (stereo not given)
50 to 500 | NC(CC(=O)NCc1cccc2ccccc12)c1ccc(C(=O)Nc2ccncc2)cc1 (stereo not given)
50 to 500 | COCC(C)NC(=O)CC(N)c1ccc(C(=O)Nc2ccncc2)cc1 (stereo not given)
50 to 500 | NC(CNC(=O)CCc1ccc(F)cc1)c1ccc(C(=O)Nc2ccncc2)cc1 (stereo not given)
50 to 500 | NC(CNC(=O)Nc1ccc2ccccc2c1)c1ccc(C(=O)Nc2ccncc2)cc1 (stereo not given)
